This passage reports TGI and GI50 results from PubChem BioAssay (NCI).

Test in all cases: DTP human tumour cell line panel, 48 h
Assay [1] relates to 786-0 renal.
Assay [2] deals with A549 NSCLC.
Assay [3] deals with HCC-2998 colon.
Assay [4] concerns KM12 colon.
The test system of assay [5] is SF-268 CNS.
The subject of assay [6] is SF-539 CNS.
The subject of assay [7] is SK-MEL-2 melanoma.
The test system of assay [8] is SNB-75 CNS.
Assay [9] has as its system TK-10 renal.
The test system of assay [10] is COLO 205 colon.

Each structure is given as a SMILES string.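 Following 48 hours of exposure in 96-well plates, responses at five concentrations were used to interpolate endpoints linearly. GI50: concentration for 50% inhibition of growth. TGI: total growth inhibition.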

The TGI is the concentration at which net growth stops. Read a low TGI as more potent growth arrest. As for `Cc1ccc(-c2cc(-c3ccco3)c(C#N)c(=O)n2C2OC(OC(=O)c3ccccc3)C(OC(=O)c3ccccc3)C2OC(=O)c2ccccc2)cc1` (stereo not drawn), the TGI in assay [1], in [2], in assay [3], in assay [4], in assay [5] and in assay [6] was over 100 µM throughout. The total growth inhibition concentration (TGI) in assay [7], in assay [8] and in assay [9] was over 100 µM throughout.

One may read the GI50 as the concentration giving 50% growth inhibition. Turning to `Cc1ccc(-c2csc(NC(=O)CN3CCN(c4cc5c(cc4F)c(=O)c(C(=O)O)cn5C4CC4)CC3)n2)cc1`, the GI50 was 0.5 µM in assay [1]; 0.433 µM in assay [2]; 1.66 µM in assay [10]; 2.04 µM in assay [3]; 0.508 µM in assay [4]; 0.493 µM in [5]. Moreover, the GI50 was 819 nM in assay [6], 1330 nM in [7] and 448 nM in [8]. Also, the TGI in assay [1] is 15.2 µM; in assay [2], 13.9 µM; in assay [10] it was 3.75 µM; in assay [3], over 100 µM; in assay [4], over 100 µM; in assay [5], over 100 µM. The total growth inhibition concentration (TGI) in [6] is 18.2 µM; in assay [7] it was 4.09 µM; in assay [8] it was 11.2 µM.

As to `Cc1cccc(-n2c(=S)[nH]c3c(sc(=O)n3-c3ccccc3C)c2=O)c1`, the total growth inhibition concentration (TGI) in assay [1], in assay [2], in assay [10], in assay [3], in assay [4] and in assay [5] was over 100 µM each time. Moreover, the TGI in assay [6], in [7] and in [8] was over 100 µM each time.

Turning to `COc1ccc(/C=C\c2cc(OC)c(O[Si](C)(C)C(C)(C)C)c(OC)c2)cc1`, the TGI in assay [1], in assay [2], in [10], in assay [3], in assay [4] and in [5] was over 100 µM in each case. The concentration for total growth inhibition (TGI) in [6] is over 100 µM; in assay [7], 65.2 µM; in assay [8], over 100 µM.

As for `Cc1cccc(C)c1NC(=O)C1C(=O)N(c2c(C)cccc2C)C(=O)/C1=N\NC(N)=S` (stereo not drawn), the TGI in assay [1], in assay [2], in assay [3], in [4], in [5] and in [6] was over 100 µM throughout. For the same compound, the TGI in assay [7] and in assay [9] was over 100 µM in each case.

With `COC(=O)c1ccccc1NC(=O)C(=O)NNC(=O)c1ccncc1`, the TGI in assay [1], in [2], in assay [10], in [3], in [4] and in [6] was over 100 µM in each case. Also, the concentration for total growth inhibition (TGI) in [8] and in assay [9] was over 100 µM each time.

As for `COc1cc(C(=O)Nc2cc3c(cc2Oc2cc(C)cc(C)c2)C(=O)N(C)[C@@H](CC(=O)N(C)O)C(=O)N3)c(Br)c(OC)c1OC`, the GI50 in assay [1] was 0.00824 µM; in assay [2], under 0.00333 µM; in [3], under 0.00333 µM; in assay [4], under 0.00333 µM; in assay [5], under 0.00333 µM; in assay [6], under 3.33 nM. The figures for the GI50 in [7], in assay [8] and in assay [9] were under 3.33 nM, under 3.33 nM and 0.00526 µM, respectively. For the same compound, the TGI was 0.0429 µM in assay [1]; 0.00742 µM in assay [2]; under 0.00333 µM in assay [3]; 0.0394 µM in [4]; 0.0067 µM in assay [5]; under 0.00333 µM in [6]. Moreover, the values for the TGI in assay [7], in assay [8] and in assay [9] were under 0.00333 µM, under 0.00333 µM and 0.0264 µM, respectively.

Take `C/C(=N\N(c1ccccc1)c1ccccc1)c1c(O)cc(C)oc1=O`: the TGI in [1], in assay [2], in assay [3], in [4], in assay [5] and in assay [6] was over 100 µM in each case. The TGI in [7], in [8] and in [9] was over 100 µM throughout.

As for `NC(N)=NCCC1OC(=O)C2=C1c1c(O)ccc3nccc(c13)O2` (stereo not drawn), the GI50 was over 100 µM in [1]; over 100 µM in [2]; over 100 µM in [10]; over 100 µM in assay [3]; over 100 µM in assay [4]; 23.8 µM in assay [5]. The GI50 in assay [6] was over 100000 nM; in assay [7] it was over 100000 nM; in assay [9], over 100 µM. For the same compound, the TGI in assay [1], in assay [2], in [10], in [3], in assay [4] and in [5] was over 100 µM each time. Moreover, the TGI in assay [6], in assay [7] and in [9] was over 100 µM throughout.

With `CCOC(=O)C1(C#N)C(c2ccccc2)CC(O)(c2ccc(Cl)cc2)C(C(=O)c2ccc(Cl)cc2)C1c1ccccc1` (stereo not drawn), the TGI in assay [1], in assay [2], in assay [10], in assay [3], in [4] and in assay [5] was over 100 µM each time. Also, the total growth inhibition concentration (TGI) in assay [7] is over 100 µM; in [8], 48.9 µM; in assay [9] it was over 100 µM.

Consider `O=C(N/N=C(/CCN1CCCC1)CC(c1ccccc1)c1c(O)c2ccccc2oc1=O)c1ccncc1` (stereo not drawn), for which the TGI in [1], in [2], in assay [3], in [4], in assay [5] and in [6] was over 100 µM each time. Also, the total growth inhibition concentration (TGI) in assay [7], in assay [8] and in [9] was over 100 µM throughout.

For `CCOC(=O)/C=C/C1=C(c2cccs2)c2ccccc2CC1`, the GI50 is 35.5 µM in assay [1]; 33.8 µM in assay [2]; 17 µM in assay [10]; 28.2 µM in assay [3]; 25.6 µM in [4]; 30.2 µM in assay [5]. The figures for the GI50 in [7], in [8] and in assay [9] were 35900 nM, 25500 nM and 17.9 µM, respectively. In addition, the TGI in [1] was over 100 µM; in assay [2], over 100 µM; in [10] it was 46.3 µM; in [3] it was 64.7 µM; in assay [4] it was 90 µM; in [5] it was over 100 µM. The TGI in assay [7] is over 100 µM; in [8], 82.5 µM; in assay [9] it was 64.3 µM.

On to `COc1ccc(-c2oc3c(OC)c(OC)c(OC)c(OC)c3c(=O)c2OC)cc1OC`, for which the TGI in assay [1] was over 100 µM; in [2], over 100 µM; in assay [10], over 100 µM; in assay [3], over 100 µM; in [4], over 100 µM; in assay [5] it was 35.2 µM. The TGI in assay [6], in [7] and in [9] was over 100 µM each time.

Consider `Cc1ccc(-c2cc(-c3ccccc3)c(C#N)c(=O)n2C2OC(CO)C(O)C(O)C2O)cc1` (stereo not drawn), for which the TGI in [1], in assay [2], in assay [10], in assay [3], in assay [4] and in assay [5] was over 100 µM each time. For the same compound, the TGI in assay [6] and in assay [9] was over 100 µM in each case.

As to `NC(=S)NNc1c([N+](=O)[O-])cnn(-c2ccccc2)c1=O`, the concentration for total growth inhibition (TGI) in assay [1] was 35.1 µM; in assay [2] it was 49.9 µM; in assay [10], 26.7 µM; in assay [3], 33 µM; in assay [4], 28.2 µM; in [5], 40.6 µM. Also, the TGI in assay [6] was found to be 34 µM; in [8], 34.1 µM; in [9], 46.6 µM.

For the compound `CCCOc1ccc2nc(NC(=O)OC)[nH]c2c1`, the GI50 in assay [1] was 0.47 µM; in [2], 0.337 µM; in assay [10], 0.135 µM; in assay [3], 0.232 µM; in assay [4] it was 0.0974 µM; in [5] it was 2.43 µM. Also, the GI50 in assay [7] is 1190 nM; in [9] it was over 25.5 µM. In addition, the concentration for total growth inhibition (TGI) in assay [1] is over 100 µM; in assay [2], over 100 µM; in assay [10] it was 0.505 µM; in assay [4] it was over 100 µM; in assay [5] it was over 100 µM; in assay [7], over 100 µM. The TGI in assay [9] was over 100 µM.

`CN(C)CC1CCC/C1=N\O` (stereo not drawn): the TGI in [1], in [10], in [3], in assay [5], in assay [6] and in assay [7] was over 100 µM in each case. Besides, the TGI in assay [8] and in assay [9] was over 100 µM each time.

`Cc1c(C(=O)NCCN2CCOCC2)cn2ncnc(Oc3ccc(NC(=O)Nc4ccc(Cl)c(C(F)(F)F)c4)cc3)c12`: the GI50 in [1] was 1.67 µM; in [3] it was 2.04 µM; in [6], 508 nM. Further, the TGI in [1] is 3.33 µM; in assay [3], 3.71 µM; in assay [6], 2.14 µM.

`O=C1NC(=S)S/C1=C(/C=C(\CC(=O)c1ccccc1)c1ccc(Cl)cc1)c1ccccc1`: the GI50 is 46.9 µM in assay [1]; 20.2 µM in [2]; 32.5 µM in assay [10]; 18.2 µM in [3]; 28.2 µM in [4]; 27.1 µM in assay [5]. Also, the figures for the GI50 in assay [6] and in assay [9] were 39000 nM and 29.6 µM, respectively. Moreover, the concentration for total growth inhibition (TGI) in assay [1] is over 100 µM; in assay [2], over 100 µM; in assay [10] it was over 100 µM; in assay [3], 47.4 µM; in assay [4] it was over 100 µM; in assay [5], 96 µM. For the same compound, the TGI in [6] and in [9] was over 100 µM throughout.

Regarding `COc1ccc(C2=NN(C=O)C(c3cccc(Nc4ccnc5cc(Cl)ccc45)c3)C2)cc1` (stereo not drawn), the GI50 in [1] was 3.43 µM; in assay [2], 4.63 µM; in [10] it was 2.4 µM; in assay [3], 11.7 µM; in assay [4] it was 2.18 µM; in assay [5], 4.8 µM. For the same compound, the GI50 in assay [6] was 2340 nM; in assay [8], 2560 nM; in assay [9], 4.24 µM. In addition, the TGI in assay [1] is 17.6 µM; in assay [2], over 100 µM; in assay [10], 9.88 µM; in assay [3] it was 94.3 µM; in [4] it was 37 µM; in assay [5] it was 88.7 µM. Also, the total growth inhibition concentration (TGI) is 7.41 µM in assay [6], 38 µM in assay [8] and 20.2 µM in [9].

Take `Cc1cc(S(=O)(=O)NC#N)c(S/C(=N\Nc2ccc([N+](=O)[O-])cc2)c2ccc(Cl)cc2)cc1Cl`: the GI50 in assay [1] is 39.6 µM; in [2], 52.6 µM; in assay [10], 15.2 µM; in [4], 24.6 µM; in assay [5], 26 µM; in assay [6], 13700 nM. For the same compound, the GI50 is over 100000 nM in assay [7], 38100 nM in assay [8] and 25 µM in [9]. Also, the TGI in assay [1] was over 100 µM; in [2], over 100 µM; in [10], 30.7 µM; in assay [4], 56.9 µM; in assay [5], over 100 µM; in assay [6] it was 28.9 µM. The TGI in assay [7], in assay [8] and in [9] was over 100 µM each time.

Regarding `CN(C)/N=C(/c1nc2ccc(Cl)cc2[nH]c1=O)C(O)c1ccc(C(O)/C(=N\N(C)C)c2nc3ccc(Cl)cc3[nH]c2=O)cc1` (stereo not drawn), the total growth inhibition concentration (TGI) in assay [1], in [2], in [10], in assay [3], in assay [4] and in [5] was over 100 µM each time. Also, the TGI in assay [6], in assay [7] and in assay [9] was over 100 µM each time.
